According to PubChem BioAssay AID434987 (Southern Research Specialized Biocontainment Screening …, 2010):
Calls of active or inactive are those of the source. The rule behind the calls is not given here.

System: M. tuberculosis H37Rv growth inhibition with meropenem
Experiment: dose response, H37Rv, with and without meropenem (AID 434987);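 note: growth over 7 days at 37 °C before Alamar Blue read on day 9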
[1] = M. tuberculosis H37Rv growth inhibition, measured here: IC50 without meropenem
[2] = M. tuberculosis H37Rv growth inhibition, measured here: IC90 without meropenem
[3] = measured here: IC90 with meropenem

Compound | IC50 | IC50 [1] [µM] | IC90 [2] [µM] | IC90 [3] [µM]
O=C(CCS(=O)(=O)c1ccccc1)N(CCCN1CCOCC1)c1nc2c(F)cccc2s1 | 11.3 µM | > 100 | > 100 | > 25
CCOC(=O)c1sc(Nc2nc3c(OC)cccc3s2)cc1C | 98.6 µM (inactive) | 89 | > 100 | > 100
O=C(CCCCCN1C(=O)c2cccc([N+](=O)[O-])c2C1=O)Nc1ccccc1F | 10.2 µM | > 100 | > 100 | 44.1
COc1cccc(/C=N/NC(=O)CSCC(=O)Nc2ccccc2)c1O | 5.41 µM | > 100 | > 100 | > 100
CCCCC(=O)NC(=S)Nc1ccc(NC(=O)C(C)C)c(OC)c1 | 99.9 µM (inactive) | > 100 | > 100 | > 100
COc1cc(OC)cc(-c2cc3ccc(OC)cc3cn2)c1 | 29 µM (inactive) | 39 | 85.8 | 76.9
O=C(CC(=O)c1ccccc1)Nc1ccc2c(c1)OCCO2 | 37.2 µM (inactive) | 78.9 | > 100 | > 100
C/C(=N\NC(=O)c1ccncc1)c1c(O)n(-c2ccccc2)c(=O)[nH]c1=O | 2.81 µM (inactive) | 5.74 | > 100 | 3.94
O=C(Nc1cccc(Cl)c1N1CCOCC1)c1ccc([N+](=O)[O-])o1 | 0.909 µM | 11 | > 100 | 38.2
Cn1nnnc1Sc1ncnc2scc(-c3cccc(F)c3)c12 | 15.4 µM | > 100 | > 100 | > 100
O=C(N/N=C/c1ccc(OC(=O)c2ccc3c(c2)OCO3)cc1)c1cncc(Br)c1 | 5.48 µM | 45.7 | > 100 | 48.3
O=C(CNC(=O)c1ccc(Br)cc1)NCC(=O)OCc1ccc(Cl)cc1 | 12.4 µM | 56.9 | > 100 | > 100
COc1cc(/C=N/NC(N)=S)ccc1OC(=O)c1ccc(C)cc1 | > 100 µM (inactive) | > 100 | > 100 | > 100
CCn1cc(C(=O)O)c(=O)c2cc(F)c(N/N=C/c3ccccc3)cc21 | 22.8 µM (inactive) | 36.5 | > 100 | > 100
O=C(CSc1nnc(COc2ccccc2)o1)N1CCN(c2ccccc2)CC1 | > 100 µM (inactive) | > 100 | > 100 | > 100
COc1cc(CNCCO)cc(Br)c1OCc1ccccc1Cl | 46.2 µM (inactive) | 47.5 | 53.7 | 52.7
O=C1N/C(=N\N=C\c2ccc3ncccc3c2)SC1Cc1ccc(SC(F)F)cc1 (centres undefined) | > 100 µM (inactive) | > 100 | > 100 | > 100
O=C(COC(=O)C1CC1)c1c[nH]c2ccccc12 | 0.999 µM | > 100 | > 100 | > 100

Compound | IC50 | IC50 [1] [µM] | IC90 [2] [µM] | IC90 [3] [µM]
CC(C(=O)Nc1cc([N+](=O)[O-])ccc1Cl)N1CCN(c2ccccc2O)CC1 (centres undefined) | > 100 µM (inactive) | > 100 | > 100 | > 100
CC1CCCN(C(=O)C2CCN(c3ncnc4c3nc3n4CCCCC3)CC2)C1 (centres undefined) | 46.7 µM (inactive) | 89.8 | > 100 | 49.7
COc1ccc(-c2csc(/C=C/c3ccc4c(c3)OCO4)n2)cc1OC | 16.1 µM | > 100 | > 100 | > 100
O=C(c1csc2c1CCCC2)n1cccn1 | 49.4 µM (inactive) | 97.3 | > 100 | > 100
Cc1cccc(C)c1OCC(=O)NNC(=O)CNC(=O)c1ccc(OC(F)F)cc1 | 88.3 µM (inactive) | > 100 | > 100 | 98.1
COCCCn1c(=O)/c(=C\c2ccccc2OC(C)C)s/c1=C(/C#N)C(=O)Nc1ccc(C(=O)O)cc1 | 5.19 µM | 13.6 | > 100 | 18.5
O=C1C(Cl)=C(N2CCCCC2)C(=O)N1c1ccccc1 | 23.9 µM | > 100 | > 100 | > 50
O=C(NCC1COc2ccccc2O1)C1CCC(CNc2c(N3CCCCC3)c(=O)c2=O)CC1 (centres undefined) | 24 µM (inactive) | 45.9 | 51.7 | 26.7
COc1cccc(NC(=S)Nc2cc(C)cc(C)n2)c1 | 6.41 µM | > 100 | > 100 | > 100
Cc1nnnn1/C(=C\c1ccccc1)C(=O)OCC(=O)NC1CCCCC1 | 8.62 µM (inactive) | 18.1 | 27 | 17.6
CN(c1ccc(OCC(=O)OCC(=O)c2c(N)n(C)c(=O)n(C)c2=O)cc1)S(=O)(=O)c1ccc2ccccc2c1 | 26.2 µM | > 100 | > 100 | > 100
CN(C)S(=O)(=O)c1ccc(C(=O)OCC2CC2(Cl)Cl)cc1 (centres undefined) | > 100 µM (inactive) | > 100 | > 100 | > 100
Cc1ccc(C)c(NC(=O)COC(=O)c2ccc(S(=O)(=O)N3CCCCC3)cc2)c1 | > 100 µM (inactive) | > 100 | > 100 | > 100
O=C1/C(=C/C=C/c2ccco2)SC(=S)N1c1ccc(O)cc1 | > 100 µM (inactive) | > 100 | > 100 | > 100
Cc1ccc(S(=O)(=O)N[C@H](C(=O)OCn2nnc3ccccc3c2=O)C(C)C)cc1 | > 100 µM (inactive) | > 100 | > 100 | > 100
COc1ccc(/C=N/Nc2nc(-c3ccc(C)cc3)c(NC(C)=O)s2)cc1 | 24.2 µM | > 100 | > 100 | > 100
Cc1ccc(SCc2c(C#N)c3ccccc3n2C)cc1 | > 100 µM (inactive) | > 100 | > 100 | > 100
Cc1cccc(Cn2c(N3CCN(c4ccccc4)CC3)nc3c2c(=O)n(C)c(=O)n3C)c1 | > 100 µM (inactive) | > 100 | > 100 | > 100
